{"source": "patent US20250268985A1", "about": "“BCL2 INHIBITOR AND PEPTIDE COMBINATION THERAPY FOR TREATING PROLIFERATIVE DISEASES” (IMMUNE SYSTEM KEY LTD., priority 2022, published 2025)", "origin": "cited, not measured here", "data": [{"smiles": "CN(C)CC[C@H](CSc1ccccc1)Nc1ccc(S(=O)(=O)NC(=O)c2ccc(N3CCN(Cc4ccccc4-c4ccc(Cl)cc4)CC3)cc2)cc1[N+](=O)[O-]", "note": "[ABT-737, 4-{4-[(4′-Chloro[1,1′-biphenyl]-2-yl)methyl]piperazin-1-yl}-N-(4-{[(2R)-4-(dimethylamino)-1-(phenylsulfanyl)butan-2-yl]ami-no}-3-nitrobenzene-1-sulfonyl)benzamide]", "values": [{"measurement": "bioavailability after oral administration", "value": "not bioavailable"}]}]}
